Test results taken from patent US11236129B2, “IL-17A binding peptides and medical uses thereof” (Dompe' Farmaceutici S.P.A., priority 2018, dated 2022).
pIC50: −log10 of the molar value. Read-outs that look alike come from different tables or passages of the source. Residues, ends and D or L forms follow the SMILES beside them.

Key:
[1] = molecular target: IL-17RA/IL17RC dimerization induced by IL-17A (Homo sapiens, UniProt Q16552); assay: IL-17RA/IL17RC dimerization assay in response to IL-17A (PathHunter Cytokine Receptor Assay); format: cell-based; conditions: IL-17A at EC80; read-out: IC50 in IL-17RA/IL7RC dimerization assay
IL-17RA/IL17RC dimerization induced by IL-17A, sequence (Q16552 24-155): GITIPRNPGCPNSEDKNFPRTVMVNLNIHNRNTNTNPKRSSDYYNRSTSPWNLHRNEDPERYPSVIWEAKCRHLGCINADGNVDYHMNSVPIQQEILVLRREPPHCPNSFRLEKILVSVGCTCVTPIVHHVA
Method in brief: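 Receptor dimerization was read as chemiluminescence from complemented β-galactosidase after IL-17A at EC80 concentration for 6–16 h at 37 °C. Peptides were added 60 min before agonist, at 37 °C or room temperature, with 1% vehicle. Percent inhibition used the EC80-stimulated and vehicle wells as references.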

[2] = Isoelectric point, log D and log P (SiriusT3); format: physicochemical; conditions: for IP (isoelectric point): 25±1° C., 0.15 M KCl
Method: The main physicochemical properties (Isoelectric point (IP), log D (7.4) and log P) of the peptides of Table 8 below were determined by using the SiriusT3 apparatus (Sirius Analytical Instruments Ltd., East Sussex, UK) equipped with an Ag/AgCl double junction reference pH electrode, a Sirius D-PAS spectrometer and a turbidity sensing device. […] An overhead stirrer was used and a temperature probe (Peltier controller) monitored the temperature during the course of the titration. The titration experiments were conducted in 0.15 M KCl Ionic Strength Adjusted solution (ISA water) under a nitrogen atmosphere at a temperature of 25±1° C. All tests were performed using standardized 0.5 M KOH and 0.5 M HCl as titration reagents, for the partition coefficient tests a saturated Octanol in ISA water (5% of ISA water) was used as partition solvent. The pKas were determined by potentiometric method by pH-metric titration. The powder (around 0.5 mg) was dissolved in 1.5 ml of ISA water and the titration was performed in triplicate in the pH range 2.0−12.0.

[3] = format: physicochemical; conditions: pH 7.8
Method: Each lyophilized peptide was weighed in an amber vial. A calculated volume of phosphate buffered solution at pH 7.8 was added in order to directly obtain 10 mM Stock Solutions. The recovered suspensions were stirred for 30 minutes by orbital shaker incubator at 37° C. Subsequent dilutions were performed to obtain the more diluted stock solutions for the less soluble compounds.
In order to evaluate the stability and the solubility, all the stock solutions were stored at 25° C. The title was evaluated by UHPLC-MS analysis in comparison with the standard solutions, at 3 time points: T0, 3 days, 1 week.
The chromatographic profile was evaluated for the quantitative assay while the MS spectra were detected as support in the stability studies.
Each peptide was weighed and directly diluted at 100 μM with the phosphate buffer at pH 7.8. The solutions were stirred for 5 minutes by vortex and heated at 37° C. for 20 minutes. The obtained standard solution was stored at 25° C. in the dark under controlled temperature.
A portion of the stock solutions was collected in an amber vial and diluted to 100 μM by phosphate buffer at pH 7.8 (dilution factor, 1:100).
Reversed-phase UHPLC was performed operating at a flow rate of 0.3 ml/min with a Luna Omega Polar C18 column ([…] 1.6 μm, 2.1×100 mm). Solvent A was 0.5% Formic Acid in water and solvent B was 0.5% Formic Acid in acetonitrile. First, samples were loaded onto the column and washed isocratically at 10% B for 3 min. Then, a gradient of 10-95% B was run over 22 min, held at 95% for 2 min, and then decreased to 10% over 1 min and held, for the pressure stabilization, for 5 min. UV Absorption was monitored by DAD (220-400 nm). ESI-MS ion trap was used for the monitoring of TIC.

[4] = octanol/ISA water, read-out: logP
[5] = pH 7.4, pH 7.4, octanol/ISA water, read-out: Log D (7.4)

pIC50 [1] | IP (isoelectric point) [2] | logP [2, 4] | logD [2, 5] | solubility [3] [µM] | logP ([2]; logP) | logD ([2]; pH 7.4, Log D (7.4)) | SMILES
> 6.00 | 10.6 | -4.99 | -0.55 | > 10000 | – | – | CC[C@H](C)[C@H](NC(=O)[C@H](Cc1c[nH]c2ccccc12)NC(=O)[C@H](CCC(=O)O)NC(=O)[C@H](Cc1ccc(O)cc1)NC(=O)[C@H](CC(C)C)NC(=O)[C@H](CC(=O)O)NC(=O)[C@H](C)NC(=O)[C@@H]1CCCN1C(=O)[C@@H](NC(=O)[C@@H](NC(=O)[C@@H](NC(=O)[C@H](CCSC)NC(=O)[C@@H](NC(C)=O)C(C)C)C(C)C)[C@@H](C)O)[C@@H](C)CC)C(=O)N[C@@H](CCC(=O)O)C(=O)N[C@@H](CCC(=O)O)C(=O)N[C@@H](C)C(=O)N[C@@H](CCCNC(=N)N)C(=O)N[C@@H](CCCCN)C(=O)N[C@@H](CCCCN)C(=O)N[C@@H](C)C(=O)N[C@@H](C)C(=O)N[C@@H](CCCCN)C(=O)N[C@@H](C)C(N)=O [SEQ ID NO: 21] (Ac-VMVTIPADLYEWIEEARKKAAKA-NH2)
> 6.00 | 4.46 | 1.99 | -1.06 | ≥ 100 | – | – | CC[C@H](C)[C@H](NC(=O)[C@H](Cc1c[nH]c2ccccc12)NC(=O)[C@H](CCC(=O)O)NC(=O)[C@H](Cc1ccc(O)cc1)NC(=O)[C@H](CC(C)C)NC(=O)[C@H](CC(=O)O)NC(=O)[C@H](C)NC(=O)[C@@H]1CCCN1C(=O)[C@@H](NC(=O)[C@@H](NC(=O)[C@@H](NC(=O)[C@H](CCSC)NC(=O)[C@@H](NC(=O)[C@H](Cc1c[nH]c2ccccc12)NC(=O)[C@@H](NC(=O)[C@H](CCC(=O)O)NC(=O)[C@H](Cc1c[nH]c2ccccc12)NC(=O)[C@H](Cc1c[nH]c2ccccc12)NC(=O)[C@@H](NC(=O)[C@H](CCC(=O)O)NC(=O)[C@H](CCCCN)NC(=O)CNC(=O)CNC(C)=O)[C@@H](C)O)[C@@H](C)O)C(C)C)C(C)C)[C@@H](C)O)[C@@H](C)CC)C(=O)N[C@@H](CCC(=O)O)C(=O)N[C@@H](CCC(=O)O)C(N)=O [SEQ ID NO: 33] (Ac-GGKETWWETWVMVTIPADLYEWIEE-NH2)
> 6.40 | 3.90 | 1.33 | -1.87 | ≥ 10 | – | – | CC[C@H](C)[C@H](NC(C)=O)C(=O)N[C@@H](CCSC)C(=O)N[C@H](C(=O)N[C@H](C(=O)N[C@H](C(=O)N1CCC[C@H]1C(=O)N[C@@H](C)C(=O)N[C@@H](CC(=O)O)C(=O)N[C@@H](CC(C)C)C(=O)N[C@@H](Cc1c[nH]c2ccccc12)C(=O)N[C@@H](CC(=O)O)C(=O)N[C@@H](Cc1c[nH]c2ccccc12)C(=O)N[C@H](C(=O)N[C@@H](CC(N)=O)C(=O)N[C@@H](CCCCN)C(N)=O)[C@@H](C)CC)[C@@H](C)CC)[C@@H](C)O)C(C)C [SEQ ID NO: 3] (Ac-IMVTIPADLWDWINK-NH2)
> 7.00 | 3.90 | 1.88 | -1.32 | ≥ 20 | – | – | CC[C@H](C)[C@H](NC(=O)[C@H](Cc1c[nH]c2ccccc12)NC(=O)[C@H](CC(=O)O)NC(=O)[C@H](Cc1c[nH]c2ccccc12)NC(=O)[C@H](CC(C)C)NC(=O)[C@H](CC(=O)O)NC(=O)[C@H](C)NC(=O)[C@@H]1CCCN1C(=O)[C@@H](NC(=O)[C@@H](NC(=O)[C@@H](NC(=O)[C@H](CCSC)NC(=O)[C@@H](NC(C)=O)C(C)C)C(C)C)[C@@H](C)O)[C@@H](C)CC)C(=O)N[C@@H](CC(N)=O)C(=O)N[C@@H](CCCCN)C(N)=O [SEQ ID NO: 4] (Ac-VMVTIPADLWDWINK-NH2)
> 6.40 | 3.51 | – | – | ≥ 50 | 1.66 | 1.88 | CC[C@H](C)[C@H](NC(C)=O)C(=O)N[C@@H](Cc1c[nH]cn1)C(=O)N[C@H](C(=O)N[C@H](C(=O)N[C@H](C(=O)N1CCC[C@H]1C(=O)N[C@@H](C)C(=O)N[C@@H](CC(=O)O)C(=O)N[C@@H](CC(C)C)C(=O)N[C@@H](Cc1c[nH]c2ccccc12)C(=O)N[C@@H](CC(=O)O)C(=O)N[C@@H](Cc1c[nH]c2ccccc12)C(=O)N[C@H](C(=O)N[C@@H](CCC(=O)O)C(=O)N[C@@H](CCC(=O)O)C(N)=O)C(C)C)[C@@H](C)CC)[C@@H](C)O)C(C)C [SEQ ID NO: 15] (Ac-IHVTIPADLWDWVEE-NH2)
